Assays:
[1] = Clinical chemistry: plasma ALT and creatinine; conditions: mean ± SEM
Text: Plasma samples were collected at 6, 13, 20 and 27 days after the gene transfer and when the mice were sacrificed. Alanine aminotransferase (ALT) and creatinine (Crea) were monitored using routine clinical chemistry assays at Kuopio University Hospital Central Laboratory. Enzyme-linked immunosorbent assays (Quantikine; R&D Systems, Minneapolis, Minn.) were used to detect the presence of human sVEGFRs in plasma samples.
Safety was judged by the assessment of the histological samples of liver, spleen, kidneys and lungs as well as by the analysis of plasma ALT and Crea levels.

[2] = system: intratumoral microvessels of SKOV-3m tumors; experiment: Microvessel and lymphatic vessel measurements in tumors (CD34, LYVE-1 immunostaining); type: in vivo, Balb/cA-nu female nude mice; conditions: result in words
Experimental: Photographs of histological sections were taken and processed using an Olympus AX70 microscope (Olympus Optical, Japan), and analySIS (Soft Imaging System, GmbH, Germany) and PhotoShop (Adobe) softwares. Microvessel density (MVD) and total microvascular area (%) of the tumors (TVA) were measured from CD34-immunostained sections using analySIS software at 100× magnification in a blinded manner (FIG. 3b). Six to ten different fields which represented maximum microvessel density areas were selected from each tumor. Necrotic areas were avoided. In addition, the total number of LYVE-1 positive lymphatic vessels per section was counted. Means±SEM of the measurements are reported.

| Compound | ALT ([1]; Day 6 after treatment) | Crea ([1]; Day 6 after treatment) | ALT ([1]; Day 13 after treatment) | Crea ([1]; Day 13 after treatment) | effect on angiogenesis by microvessel measurements [2] |
| --- | --- | --- | --- | --- | --- |
| N.N.O=C([O-])C1(C(=O)[O-])CCC1.[Pt+2] [Carboplatin] | 10.0 ± 1 U/l | 14.4 ± 3 um/l | 399 ± 209 U/l | 4.9 ± 2 um/l | – |
| Bevacizumab | 12.9 ± 3 U/l | 7.4 ± 1 um/l | 56.3 ± 22 U/l | 12.4 ± 4 um/l | did not have any effect |

Source: patent US20140057851A1, “Anti-Angiogenic Gene Therapy With Soluble VEGF Receptors -1, -2 and -3 Together With Paclitaxel Prolongs Survival Of Mice With Human Ovarian Carcinoma” (WKD Holding Oy, priority 2012, published 2014)
